Data: PubChem BioAssay (NCI)
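Cells were grown in 96-well plates and exposed to each compound for 48 hours at five concentrations; endpoints were interpolated linearly between bracketing concentrations, or set to the highest concentration if not reached. GI50: concentration for 50% inhibition of growth. The concentration for full growth arrest is given as TGI.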

Assays:
Assay in all cases: NCI-60 cell line screen, 48 h
HCT-116 colon = system: HCT-116 colon
SF-295 CNS = system: SF-295 CNS
SK-MEL-28 melanoma = system: SK-MEL-28 melanoma
HT29 colon = system: HT29 colon
NCI-H226 lung = system: NCI-H226 lung
UO-31 renal = system: UO-31 renal
MDA-MB-435 = system: MDA-MB-435
BT-549 breast = system: BT-549 breast
SK-MEL-2 melanoma = system: SK-MEL-2 melanoma
COLO 205 colon = system: COLO 205 colon

Row | Compound | GI50 (HCT-116 colon) [µM] | TGI (HCT-116 colon) [µM] | GI50 (SF-295 CNS) [µM] | TGI (SF-295 CNS) [µM] | GI50 (SK-MEL-28 melanoma) [µM] | TGI (SK-MEL-28 melanoma) [µM] | GI50 (HT29 colon) [µM] | TGI (HT29 colon) [µM] | GI50 (NCI-H226 lung) [µM] | TGI (NCI-H226 lung) [µM] | GI50 (UO-31 renal) [µM] | TGI (UO-31 renal) [µM] | GI50 (MDA-MB-435) [µM] | TGI (MDA-MB-435) [µM] | GI50 (BT-549 breast) [µM] | TGI (BT-549 breast) [µM] | GI50 (SK-MEL-2 melanoma) [µM] | TGI (SK-MEL-2 melanoma) [µM] | TGI (COLO 205 colon) [µM] | GI50 (COLO 205 colon) [µM]
1 | O=c1cc(-c2ccccc2)oc2cc(O)c(O)c(O)c12 | 11.1 | 31.8 | 11.7 | 46.4 | 92.3 | > 100 | 42.7 | > 100 | 19.3 | 58 | 13.9 | > 100 | 10.2 | 39.8 | 13.6 | 87.5 | 53.9 | > 100 | – | –
2 | [Cl][Sn]([Cl])([c]1ccccc1)[c]1ccccc1 | – | – | 17 | 33.5 | 2.43 | 6.53 | 16.1 | 30.5 | 17.7 | 32.2 | 19.4 | 33.5 | – | – | – | – | 4 | 14.1 | – | –
3 | Nc1nc2sc3ccccc3c(=O)n2n1 | – | > 100 | – | > 100 | – | > 100 | – | > 100 | – | > 100 | – | > 100 | – | – | – | – | – | > 100 | > 100 | –
4 | Cc1cc(Cl)cc2c(N=Nc3ccccc3[N+](=O)[O-])c(O)[nH]c12 | – | > 100 | – | > 100 | – | > 100 | – | – | – | – | – | > 100 | – | > 100 | – | > 100 | – | > 100 | > 100 | –
5 | Cc1cc(NCCCNc2ccnc3cc(Cl)ccc23)nc(N2CCN(C)CC2)n1 | 2.22 | 13 | 3.51 | 12.3 | 1.84 | 3.67 | 1.33 | 13.5 | 3.39 | 22 | 4.05 | 24 | 2.57 | 7.07 | 13.1 | 53.3 | – | – | 6.29 | 2.28
6 | CN(C)CCN(C)CC1COC(C)(C)O1 (configuration not stated) | – | > 100 | – | > 100 | – | > 100 | – | > 100 | – | > 100 | – | > 100 | – | – | – | – | – | > 100 | > 100 | –
7 | COC(c1cccc(C(O)(C(F)(F)F)C(F)(F)F)c1)(C(F)(F)F)C(F)(F)F | – | 31 | – | 30.2 | – | – | – | 31.6 | – | 37.8 | – | 34.2 | – | – | – | – | – | 33.7 | 33.5 | –
8 | CC(C)Nc1ccc(Nc2ccccc2)cc1 | 14.1 | 31.4 | – | – | 28.1 | 95.1 | 17 | 48.4 | 19.9 | 69.3 | 14.1 | 64.9 | 15.4 | 46 | 11.3 | 33.9 | 25.6 | 66.3 | 31.3 | 14.3
